Measured values published in patent US7141541B1, “Use of peptides” (University Court of the University of Dundee, priority 1999, dated 2006).
Where no end group is shown, it is not given here.

How the values were obtained:
recombinant human eIF4E = recombinant human eIF4E (Homo sapiens, UniProt P06730); test: in vitro binding (pull-down) assay with eIF4E; details: FIG. 4, FIG. 5
Experimental: (§1) Sequences of biotinylated, penetratin-linked peptides. U=Norvaline, a substitution for cysteine. Conserved residues that are important in binding to eIF4E are underlined. b). In vitro binding assay. i) 1 μg recombinant eIF4E was incubated with 0.2 mM biotinylated peptides in a total volume of 50 μl wash buffer (1×PBS/250 mM Kcl) for 1 h at 4° C. ii) 0.2 mM Hu4G or Hu4G YLL-AAA was incubated with 200 μg MRC5 cell lysate for 1 h at 4° C. in a total volume of 50 μl wash buffer. In all cases the biotinylated peptides and associated proteins were pulled down using streptavidin agarose. The proteins were separated by SDS PAGE and subjected to Western blotting using anti-eIF4E antibody. Detection was by ECL;
In order to study directly the role of eIF4E in cell transformation, a series of biotinylated synthetic peptides (Peptides synthesised by Cyclacel) corresponding to the eIF4E interacting domain (binding motif) of human eIF4G, and wheat eIF4G and alanine substituted peptides thereof were synthesised (see FIG. 12a) and tested for their capacity to interact with ^35S-Met labelled in vitro translated human eIF4E (NB. Peptides BP1 and BP1 YLM-AAA were not biotinylated). Peptides were coupled to streptavidin coated agarose beads by a N-terminus linked biotin group and washed in PBS/0.2% Tween 3× before being incubated for 1 hour at +4° C. with in vitro translated human eIF4E. Beads were washed as above and boiled for 5 min. in SDS loading buffer before the peptide bound proteins were separated on a 10% SDS gel. The bands were visualised by autoradiography.

[1] = target: T1, eIF4E in MRC5 cell lysate (Homo sapiens, UniProt P06730); test: pull-down of eIF4E from MRC5 cell lysate; assay type: binding; details: 0.2 mM peptide, 200 μg MRC5 cell lysate, 1 h at 4° C.
T1 construct: endogenous in cells; host or cells: MRC5
Experimental: as §1

HaCaT cells = test: cytotoxic or cytostatic effect on HaCaT cells; assay type: cell-based
MRC5 cells [2] = test: peptide-induced cell death (apoptosis) in MRC5 cells; assay type: cell-based
From the text: FIG. 8 is a table illustrating the induction of apoptosis by eIF4G peptides in MRC5 cells;
FIG. 9 is a summary of the results of inhibition of eIF4G(413-424)-induced apoptosis;

MRC5 cells [3] = test: cell survival by MTT assay; assay type: cell-based; details: various concentrations, 72 h serum-starved MRC5 cells, FIGS. 13b,c,d
Experimental: FIGS. 13a–d are graphs showing cell survival (% of control, untreated cells) as measured by MTT assay. a) Lane 1: 10 μM BP2 peptide added to serum-fed cells or Lane 2, 3, 4: 10 μM BP2 peptide added to 24 h, 48 h or 72 h serum-starved cells respectively. Lane 5: 10 μM BP2 YLL-AAA added to 72 h serum starved cells. Lane 6: 72 h serum starved cells incubated in 10% serum for 1 h prior to addition to 10 μM BP2 peptide. Lane 7: 72 h serum starved cells incubated with 100 μg/ml cycloheximide followed by a 1 h incubation with 10% serum prior to the addition of 10 μM BP2 peptide. In all cases the cells were then further incubated for 1 h in 0.1 mg/ml MTT. Cells were lysed in DMSO and absorbance was measured at […]. b–d) Varying concentrations of peptides were added to 72 h serum starved MRC5 cells. After 30 min incubation the cells were then further incubated for 1 h in 0.1 mg/ml MTT. Cells were lysed in DMSO and absorbance was measured at 570 nm.

MRC5 cells [4] = test: TUNEL analysis; assay type: cell-based; details: 10 μM peptide, 10 min
Experimental: (§2) MRC5 cells were incubated with 10 μM Hu4G peptide for 10 min. Cells visualised with fluorescein by fluorescence microscopy. […] 80% of cells incubated with the 10 μM Hu4G peptide fluoresced positive. d) Images of DAPI-stained MRC5 cells incubated with either 20 μM Hu4G or Hu4G YLL-AAA peptide for 40 min. Arrows indicate the position of a cell with either a condensed nucleus (top right) or a nucleus with a punctate appearance (bottom left). e) Visualisation of effects on the MPT. Serum-starved MRC5 cells were loaded with 0.1 μM JCl for 30 min prior to addition of 10 μM peptide. Changes in mitochondrial permeability were viewed by laser scanning confocal microscopy (krypton/argon laser) using identical setting. Green channel: excitation 488 nm/emission 522 nm. Red channel: excitation 568 nm/emission 585 nm. Channels were collected separately to avoid cross over. Images were taken 5 min after addition of the peptide;

MRC5 cells [5] = test: FACS analysis of propidium iodide-stained cells; assay type: cell-based; details: 20 μM, 40 min
MRC5 cells [6] = test: DAPI staining of cell nuclei; assay type: cell-based; details: 20 μM, 40 min
Experimental: as §2

MRC5 cells [7] = test: mitochondrial permeability transition (JC1 dye, confocal microscopy); assay type: cell-based; details: 10 μM peptide, serum-starved MRC5 cells
Experimental: as §2
An early event considered decisive in apoptosis is the opening of the mitochondrial permeability transition (MPT) pore (20–22). To characterise further the eIF4E-binding peptide-induced cell death, the development of the MPT was investigated in living MRC5 cells loaded with the fluorescent dye, JC1 (21).

[8] = tested on: HaCaT, Swiss 3T3, RATI and IIeLa cells; test: cell survival in other cell-types; assay type: cell-based; details: results not shown
MRC5 cells [9] = test: [35S]methionine incorporation into protein; assay type: cell-based; details: serum deprived cells, 30 minutes
Experimental: (§3) FIG. 16 illustrates that eIF4E binding peptide cell death is not through eIF4E's known role in mRNA translation. a) 72 h serum-starved MRC5 cells were treated with 100 μg/ml and 10 μg/ml cylcoheximide, 1 μg/ml and 0.1 μg/ml pactamycine or 10 μM Hu4G peptide for 2 h prior to a MTT assay. Cells were pulsed labelled with [^35S]methionine for 30 min after addition of the inhibitors/peptide. The incorporation of [^35S]methionine into protein was determined following hot trichloroacetic acid precipitation. b) 72 h serum-starved MRC5 cells were treated with 100 μg/ml cycloheximide (Chx), 1 μg/ml pactamycine (Pact) or c) MRC5 cells which had been starved of serum for 72 h were pre-incubated with 100 μg/ml cycloheximide or 1 μg/ml pactamycine for 30 min prior to addition of 10 μM Hu4G peptide. Cells were then further incubated for 1.5 h prior to a MTT assay. Results from three independent experiments (+/− SEM).
Serum deprived cells were treated with the general translation inhibitors Cyclohexamide or Pactamycin at indicated concentrations or the H4G peptide in the presence of 35S-Met for 30 minutes (see FIGS. 16a,b). Cells were lysed and the amount of translation was estimated by counting incorporated 35S-Met in precipitated protein fractions.

MRC5 cells [10] = test: MTT assay with general translation inhibitors (FIG. 16); assay type: cell-based; details: serum deprived cells
Experimental: as §3

Chain of recombinant human eIF4E (P06730 whole entry): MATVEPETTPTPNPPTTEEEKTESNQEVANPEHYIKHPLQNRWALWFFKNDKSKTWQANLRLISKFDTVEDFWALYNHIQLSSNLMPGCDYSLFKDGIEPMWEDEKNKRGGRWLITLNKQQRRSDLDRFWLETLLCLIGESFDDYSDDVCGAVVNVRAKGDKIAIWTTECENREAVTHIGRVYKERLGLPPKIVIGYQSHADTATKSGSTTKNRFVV
T1 sequence (P06730 whole entry): as above

Hu4G: biotinylated, penetratin-linked peptide of the eIF4E binding motif of human eIF4G (KKRYDREFLLGFRQIKIWFQNRRMKWKK; also: biotinylated)
binding to recombinant human eIF4E in vitro (recombinant human eIF4E): found to bind recombinant human eIF4E in vitro
binding of eIF4E in cell lysates [1]: bound eIF4E in cell lysates
time until cells began to die after peptide treatment (HaCaT cells; 60 h serum starved cells): ≤ 15 min
effect with short treatment (HaCaT cells; HaCaT cells, <24 h with 20 μM): no effect observed
cytotoxic or cytostatic effect (HaCaT cells; selected cell lines): exhibited a cytotoxic or cytostatic effect on selected cell lines
effect of limited serum treatment on sensitivity to the peptide (MRC5 cells [2]; FIG. 9): Resistance
cell death (possibly by apoptosis) (MRC5 cells [2]; serum starved cell lines, FIG. 8): caused rapid cell death
cell death / cell viability (MRC5 cells [3]): rapid, dose-dependent, cell death
cells fluoresced positive (TUNEL) (MRC5 cells [4]): 80%
DNA profile (MRC5 cells [5]): shift in the DNA profile from G0/1 to sub G0/1
nuclear condensation (MRC5 cells [6]): signs of nuclear condensation
changes in JC1 fluorescence (MPT pore opening) (MRC5 cells [7]): rapid increase
time to increase in green fluorescence with loss of orange fluorescence (MRC5 cells [7]): ≤ 5 min
cell survival [8]: rapid cell death
incorporation of 35S-Met (translation) (MRC5 cells [9]): do not incorporate 35S-Met
cell killing (MRC5 cells [10]): they die
